From article PMC11253866 (RSC Medicinal Chemistry, 2024)
Where two headings read alike, the source gives them in different places. Marks after values point to notes of the source that are not given here.

What was measured:
[1] = Liver microsome stability assessment; type: in vitro ADME, rat; settings: LCMS analysis of liver microsome assay mixtures
[2] = scale 0–6, cited from earlier work

Row | SMILES | major metabolic route [1] | CNS MPO score [2] | CNS MPO score ([2]; listed as gabapentin)
1 | CNCCCOc1ccc(S(=O)(=O)N2c3ccccc3Oc3ccccc32)cc1.O=C(O)C(F)(F)F [Compound 4a, 3-(4-((10H-Phenoxazin-10-yl)sulfonyl)phenoxy)-N-methylpropan-1-amine.TFA] | demethylation |  | 
2 | CN(C)CCCOc1ccc(S(=O)(=O)N2c3ccccc3Oc3ccccc32)cc1.O=C(O)C(F)(F)F [Compound 4b, 3-(4-((10H-Phenoxazin-10-yl)sulfonyl)phenoxy)-N,N-dimethylpropan-1-amine.TFA] | demethylation |  | 
3 | NCC1(CC(=O)O)CCCCC1 [Gabapentin] |  | 4.2 ^a | 4.2
4 | CN(C)CCCN1c2ccccc2CCc2ccc(Cl)cc21 [clomipramine] |  | 3.1 | 
5 | CNCCC=C1c2ccccc2CCc2ccccc21 [nortriptyline] |  | 3.3 | 
6 | COc1cccc(C2(O)CCCCC2CN(C)C)c1 (stereo not shown) [tramadol] |  | 4.6 | 
